Literature values in US20110105434A1, “2-AMINO PURINE DERIVATIVES AND THEIR USE AS ANTI-HERPETIC AGENTS” (priority 2007, published 2011).

Details: oral maximum dose of 800 mg 5 times per day, most patients; cited from earlier work

## Nc1nc2c(ncn2COCCO)c(=O)[nH]1 [acyclovir, 2-amino-9-1,-dihydro-9-[(2-hydroxyethyl)methyl]-6H-purin-6-one]
  blood level: about 1.61 ng/mL
